The values below come from US10239859B2, “Nitrogen-containing heterocycles as pesticides” (Bayer CropScience Aktiengesellschaft, priority 2015, dated 2019).

Where two headings read alike, the source gives them in different places.

One data set deals with Myzus persicae. The data set can be described thus: Myzus persicae spray test (Chinese cabbage leaf discs). Format: in vivo. The settings on record: after 6 days. As to the method:
Myzus persicae—Spray Test
Solvent: 78 parts by weight of acetone • • 1.5 parts by weight of dimethylformamide
(§1) Emulsifier: alkylaryl polyglycol ether
(§2) To produce a suitable active compound preparation, 1 part by weight of active compound is dissolved with the stated parts by weight of solvent and made up with water containing an emulsifier concentration of 1000 ppm until the desired concentration is attained. To produce further test concentrations, the preparation is diluted with emulsifier-containing water.
Discs of Chinese cabbage leaves (Brassica pekinensis) infested by all stages of the green peach aphid (Myzus persicae) are sprayed with an active compound preparation of the desired concentration.
After 6 days, the efficacy in % is determined. 100% means that all the aphids have been killed; 0% means that no aphids have been killed.

A short description of data set [1]: log P determination by HPLC on reversed-phase C18 columns (OECD Guideline 117). Format: physicochemical. As to the method: The log P values were determined in accordance with OECD Guideline 117 (EC Directive 92/69/EEC) by HPLC (high-performance liquid chromatography) using reversed-phase (RP) columns (C18), by the following methods:
[a] The LC-MS determination in the acidic range is effected at pH 2.7 with 0.1% aqueous formic acid and acetonitrile (contains 0.1% formic acid) as eluents; linear gradient from 10% acetonitrile to 95% acetonitrile.
[b] LC-MS determination in the neutral range is effected at pH 7.8 with 0.001 molar aqueous ammonium hydrogencarbonate solution and acetonitrile as eluents; linear gradient from 10% acetonitrile to 95% acetonitrile.

In another data set the test system is Ctenocephalides felis. The data set can be described thus: Ctenocephalides felis oral test. It is filed as in vivo. The settings on record: 100 ppm in citrated cattle blood, adult cat fleas, after 2 days. As to the method: Ctenocephalides felis—Oral Test
(§3) Solvent: dimethyl sulphoxide
To produce a suitable active compound preparation, 10 mg of active compound are mixed with 0.5 ml of dimethyl sulphoxide. Dilution with citrated cattle blood gives the desired concentration.
About 20 unfed adult cat fleas (Ctenocephalides felis) are placed into a chamber which is closed at the top and bottom with gauze. A metal cylinder whose bottom end is closed with parafilm is placed onto the chamber. The cylinder contains the blood/active compound preparation, which can be imbibed by the fleas through the parafilm membrane.
After 2 days, the kill in % is determined. 100% means that all of the fleas have been killed; 0% means that none of the fleas have been killed.

Another data set concerns Tetranychus urticae. The data set can be described thus: Tetranychus urticae spray test, OP-resistant. Format: in vivo. The settings on record: 500 g/ha, bean leaf discs, after 6 days. As to the method:
Tetranychus urticae—Spray Test, OP-Resistant
(§4) Solvent: 78.0 parts by weight of acetone • • 1.5 parts by weight of dimethylformamide
as §1, §2
Discs of bean leaves (Phaseolus vulgaris) infested with all stages of the greenhouse red spider mite (Tetranychus urticae) are sprayed with an active compound preparation of the desired concentration.
After 6 days, the efficacy in % is determined. 100% means that all the spider mites have been killed; 0% means that no spider mites have been killed.

In another data set the test system is Phaedon cochleariae. The data set is described as follows: Phaedon cochleariae spray test. Format: in vivo. To be noted: 500 g/ha, larvae on Chinese cabbage leaf discs, after 7 days. The method, then: Phaedon cochleariae—Spray Test
as §4, §1, §2
After 7 days, the efficacy in % is determined. 100% means that all the beetle larvae have been killed; 0% means that no beetle larvae have been killed.

A further data set concerns Lucilia cuprina. The data set is described as follows: Lucilia cuprina test. Format: in vivo. The settings on record: 100 ppm, L1 larvae, after 2 days. The method, then: as §3
To produce a suitable active compound preparation, 10 mg of active compound are mixed with 0.5 ml of dimethyl sulphoxide, and the concentrate is diluted with water to the desired concentration.
About 20 L1 larvae of the Australian sheep blowfly (Lucilia cuprina) are transferred into a test vessel containing minced horsemeat and the active compound preparation of the desired concentration.
After 2 days, the kill in % is determined. 100% means that all the larvae have been killed; 0% means that no larvae have been killed.

Where [2] appears, read: reversed-phase C18 HPLC column, acidic range, pH 2.7, 0.1% aqueous formic acid / acetonitrile, read-out: logP value (HCOOH).
[3] abbreviates: reversed-phase C18 HPLC column, neutral range, pH 7.8, 0.001 molar aqueous ammonium hydrogencarbonate / acetonitrile, read-out: LogP value (neutral).

Regarding `N#C/N=c1\ccccn1-c1ccc(Br)nc1` [Example 2, [1-[6-Bromopyridin-3-yl]-2(1H)-pyridinylidene]cyanamide], the efficacy with Myzus persicae (100 g/ha) came out at 90%. Besides, in data set [1] (setting [2]), the chromatographic logP was found to be 1.07.

For the molecule `N#C/N=c1\ccccn1-c1ccc(C(F)(F)F)nc1` [Example 1, [1-[6-Trifluoromethylpyridin-3-yl]-2(1H)-pyridinylidene]cyanamide], the efficacy with Myzus persicae (500 g/ha), with Tetranychus urticae and with Phaedon cochleariae was 100% throughout. The “efficacy (kill)” value with Ctenocephalides felis turned out to be 95%; in the data set on Lucilia cuprina it was 100%. As to `O=c1ccccn1-c1ccc(Cl)nc1` [IV-14, 6′-chloro-[1(2H),3′-bipyridin]-2-one], in data set [1] (setting [2]), the chromatographic logP stood at 0.67.

Consider “[1-[[6-(3-Trifluoromethylpyrazol-1-yl)pyridin-3-yl]-2-(1H)-pyridinylidene]cyanamide [Example 25]”, for which the “LogP value (neutral)” value in data set [1] (pH 7.8) is 2.23.

Consider `O=c1ccccn1-c1ccc(C(F)(F)C(F)(F)C(F)(F)F)nc1` [IV-31, 6′-Heptafluoropropyl-[1(2H),3′-bipyridin]-2-one], for which the chromatographic logP in data set [1] (acidic range, pH 2.7, 0.1% aqueous formic acid / acetonitrile, read-out: logP value (HCOOH)) was determined as 2.26.

For the molecule `O=c1ccccn1-c1ccc(-n2cnc(Cl)n2)nc1` [IV-29, 6′-(3-Chloro-1,2,4-triazol-1-yl)-[1(2H), 3′-bipyridin]-2-one], in data set [1] (setting [2]), the chromatographic logP turned out to be 1.23.

Take `S=c1ccccn1-c1ccc(-n2cnc(Cl)n2)nc1` [VI-5, 6′-(3-Chloro-1,2,4-triazol-1-yl)-[1(2H), 3′-bipyridine]-2-thione]: the chromatographic logP in data set [1] (setting [3]) was determined as 1.58. `O=C(/N=c1\ccccn1-c1ccc(C(F)(F)F)nc1)C(F)(F)F` [Example 7]: the efficacy in the data set with Myzus persicae (500 g/ha) is reported as 100%. In addition, the chromatographic logP in data set [1] (setting [2]) was found to be 2.19. Besides, the “efficacy (kill)” value in the data set with Lucilia cuprina is listed as 95%. Turning to `N#Cc1cccn(-c2ccc(Cl)nc2)c1=O` [IV-4, 1,2-Dihydro-2-oxo-1-(6-chloropyridin-3-yl)-3-pyridinecarbonitrile], the chromatographic logP in data set [1] (setting [2]) was 1. `O=C(/C=C1\C=CC=CN1c1ccc(C(F)(F)F)nc1)C(F)(F)F` [Example 4, (3E)-3-[1-(6-Trifluoromethyl-3-pyridinyl)-2(1H)-pyridinylidene]-1,1,1-trifluoro-2-propanone] returned an efficacy in the data set with Myzus persicae (500 g/ha) of 90%. Also, the chromatographic logP in data set [1] (setting [2]) turned out to be 2.2. The “efficacy (kill)” value with Lucilia cuprina is 100%. Regarding `FC(F)(F)c1ccc(-n2ccccc2=S)cn1` [VI-2, 6′-trifluoromethyl-[1(2H),3′-bipyridine]-2-thione], the chromatographic logP in data set [1] (setting [2]) came to 1.7.

Take `O=c1ccccn1-c1ccc(C(F)(F)C(F)(F)F)nc1` [IV-33, 6′-Pentafluoroethyl-[1(2H), 3′-bipyridin]-2-one]: in data set [1] (setting [2]), the chromatographic logP was found to be 1.94. On to `N#C/N=c1\ccccn1-c1ccc(F)nc1` [Example 8, [1-[6-Fluoropyridin-3-yl]-2(1H)-pyridinylidene]cyanamide], for which the efficacy is on record as 90% in the data set on Myzus persicae (500 g/ha) and 100% in the data set on Phaedon cochleariae. In addition, the chromatographic logP in data set [1] (setting [2]) stood at 0.7.

On to `Cc1ccc(-n2ccccc2=S)cn1` [VI-1, 6′-Methyl-[1(2H),3′-bipyridine]-2-thione], for which the chromatographic logP in data set [1] (setting [2]) is 0.51. Consider `O=c1ccccn1-c1ccc(C(F)(C(F)(F)F)C(F)(F)F)nc1` [IV-32, 6′-(1,1,1,2,3,3,3-Heptafluoropropyl)-[1(2H), 3′-bipyridin]-2-one], for which the chromatographic logP in data set [1] (setting [2]) was 2.4. For the molecule `Cc1ccc(-n2cccc/c2=N\C#N)cn1` [Example 3, [1-[6-Methylpyridin-3-yl]-2(1H)-pyridinylidene]cyanamide], the values for the efficacy in the data set on Myzus persicae (100 g/ha) and in the data set on Phaedon cochleariae were 90% and 100%, respectively. Also, the chromatographic logP in data set [1] (setting [2]) turned out to be 0.46. Regarding `O=c1ccccn1-c1ccc(C(F)(F)F)nc1` [IV-1, 6′-Trifluoromethyl-[1(2H),3′-bipyridin]-2-one], the chromatographic logP in data set [1] (setting [2]) came out at 1.26. For `N#C/N=c1\ccccn1-c1ccc(-n2cnc(Cl)n2)nc1` [Example 24, [1-[6-(3-Chloro-1,2,4-triazol-1-yl)pyridin-3-yl]-2-(1H)-pyridinylidene]cyanamide], the chromatographic logP in data set [1] (setting [3]) stood at 1.39. For `O=c1ccccn1-c1ccc(Br)nc1` [IV-2, 6′-Bromo-[1(2H), 3′-bipyridin]-2-one], the chromatographic logP in data set [1] (setting [2]) was found to be 0.95.
